Measured values reported in ChEMBL document CHEMBL3120134, “A review of non-nucleoside anti-hepatitis B virus agents” (Eur J Med Chem, 2014).
Values after ≈ are worked out from the molar mass of the structure shown. Values belong to the compound of their own block, whether it stands above or below them.

Experiments:
[1] = Selectivity index, ratio of cytotoxicity towards human HepG2.2.15 cells to IC50 for HBV e antigen secretion; format: toxicity, cell-based; settings: read-out: Selectivity Index
Hepatitis B virus [2] = experiment: Antiviral activity against Hepatitis B virus infected in human HepG2.2.15 cells assessed as decrease in HBV e antigen secretion; format: functional, organism-based, HepG2 2.2.15; settings: for IC50: Hepatitis B virus, HepG2 2.2.15
Hepatitis B virus [3] = experiment: Antiviral activity against Hepatitis B virus infected in human HepG2.2.15 cells assessed as decrease in HBV DNA production; format: functional, organism-based; settings: HepG2 2.2.15
Duck hepatitis B virus = experiment: Antiviral activity against Duck Hepatitis B virus infected in duckling assessed as decrease in DHBV DNA replication at 0.2 g/kg dosed for 10 days; format: functional; settings: 240 h
[4] = Selectivity index, ratio of cytotoxicity towards human HepG2.2.15 cells to IC50 for HBV DNA production; format: toxicity, cell-based; settings: read-out: Selectivity Index
[5] = Selectivity index, ratio of cytotoxicity towards human HepG2.2.15 cells to IC50 for HBV surface antigen secretion; format: toxicity, cell-based; settings: read-out: Selectivity Index
Hepatitis B virus [6] = experiment: Antiviral activity against Hepatitis B virus infected in human HepG2.2.15 cells assessed as decrease in HBV surface antigen secretion; format: functional, organism-based, HepG2 2.2.15; settings: for IC50: Hepatitis B virus, HepG2 2.2.15
Hepatitis B virus [7] = experiment: Antiviral activity against Hepatitis B virus assessed as inhibition of Hepatitis B virus DNA replication; format: functional, organism-based
Hepatitis B virus [8] = experiment: Antiviral activity against Hepatitis B virus infected in human HepG2.2.15 cells assessed as decrease in HBV surface antigen secretion after 21 days; format: functional, organism-based; settings: HepG2 2.2.15, 504 h
Hepatitis B virus [9] = experiment: Antiviral activity against Hepatitis B virus; format: functional, organism-based
Hepatitis B virus [10] = experiment: Antiviral activity against Hepatitis B virus assessed as inhibition of Hepatitis B virus e antigen secretion; format: functional, organism-based
Hepatitis B virus [11] = experiment: Antiviral activity against Hepatitis B virus assessed as inhibition of Hepatitis B virus surface antigen secretion; format: functional, organism-based
Hepatitis B virus [12] = experiment: Antiviral activity against Hepatitis B virus infected in human Huh7 cells assessed as inhibition of HBV particles production; format: functional, organism-based; settings: Huh-7
Hepatitis B virus [13] = experiment: Antiviral activity against Hepatitis B virus assessed as inhibition of interaction between Trx-PreS and HBcAg; format: functional, organism-based
Hepatitis B virus [14] = experiment: Antiviral activity against Hepatitis B virus infected in human HepG2.2.15 cells assessed as decrease in HBV e antigen secretion after 9 days; format: functional, organism-based; settings: HepG2 2.2.15, 216 h
Hepatitis B virus [15] = experiment: Antiviral activity against Hepatitis B virus infected in human MS-G2 cells assessed as decrease in HBV surface antigen production at 20 ug/ml; format: functional
Hepatitis B virus [16] = experiment: Antiviral activity against Hepatitis B virus infected in human HepG2.2.15 cells assessed as decrease in HBV surface antigen secretion by ELISA; format: functional, organism-based; settings: HepG2 2.2.15
Hepatitis B virus [17] = experiment: Antiviral activity against Hepatitis B virus infected in human HepG2.2.15 cells assessed as decrease in HBV DNA production by quantitative RT-PCR analysis; format: functional, organism-based; settings: HepG2 2.2.15
Hepatitis B virus [18] = experiment: Antiviral activity against Hepatitis B virus infected in human HepG2.2.15 cells assessed as decrease in HBV e antigen secretion by ELISA; format: functional, organism-based; settings: HepG2 2.2.15

IC50 (Hepatitis B virus [2]): 30 µg/mL
IC50 (Hepatitis B virus [3]): 19.4 µg/mL
IC50 (Hepatitis B virus [6]): 57.7 µg/mL
Structure (SMILES): C[C@@H]1CC[C@]2(C(=O)O[C@@H]3O[C@H](CO)[C@@H](O)[C@H](O)[C@H]3O)CC[C@]3(C)C(=CC[C@@H]4[C@@]5(C)C[C@@H](O)[C@H](O)C(C)(C)[C@@H]5CC[C@]43C)[C@@H]2[C@]1(C)O
selectivity ratio [1]: 7.86
inhibition in vivo at 200 mg/kg (Duck hepatitis B virus): 58.5%
selectivity ratio [4]: 12.1
selectivity ratio [5]: 4.1

IC50 (Hepatitis B virus [7]): 30 nM
Structure (SMILES): COC(=O)C1=C(C)NC(c2nccs2)=N[C@H]1c1ccc(F)cc1Cl

IC50 (Hepatitis B virus [3]): < 10000 nM
Structure (SMILES): COc1cc2cc3c(nc2c(CN2CCCCC2)c1O)-c1ccc(F)cc1SC3

Structure (SMILES): C[C@@H]1CC[C@H]2[C@@H](C)C(=O)O[C@@H]3O[C@@]4(C)CC[C@@H]1[C@]32OO4 [ARTEMISININ]
IC50 (Hepatitis B virus [8]): 55000 nM

EC50 (Hepatitis B virus [9]): 120 nM
Structure (SMILES): Cc1ccc(C(=O)Nc2ncc(Cl)s2)c(O)c1

EC50 (Hepatitis B virus [9]): 1000 nM
Structure (SMILES): O=C1OCc2c1cc1ccc3c(c1c2-c1ccc2c(c1)OCO2)OCO3 [HELIOXANTHIN]

Structure (SMILES): COc1cc2c(cc1O)CC[n+]1cc3c4c(ccc3c(C)c1-2)OCO4.[OH-]
inhibition (INH) (Hepatitis B virus [2]): 40%
inhibition (INH) (Hepatitis B virus [6]): 50%

IC50 (Hepatitis B virus [6]): 600 nM
Structure (SMILES): C[C@H](C[C@H](O)[C@@H](O)C(C)(C)O)[C@]12CC[C@@]3(C)[C@@]1(C[C@H](O)[C@H]1[C@@]4(C)CCC(=O)C(C)(C)[C@@H]4CC[C@@]13C)O2

IC50 (Hepatitis B virus [3]): < 10000 nM
Structure (SMILES): COc1cc2cc3c(nc2c(CN2CCCC2)c1O)-c1ccc(C)cc1SC3

IC50 (Hepatitis B virus [10]): < 50 nM
IC50 (Hepatitis B virus [11]): < 50 nM
Structure (SMILES): COc1ccc2c(c1OC)CN(C)c1c-2ccc2cc3c(cc12)OCO3 [DIHYDROCHELERYTHRINE]

IC50 (Hepatitis B virus [7]): 76400 nM
Structure (SMILES): COC(=O)c1nc(-c2csc([C@@H](NC(=O)c3cccs3)C(C)C)n2)oc1C

IC50 (Hepatitis B virus [7]): 150 nM
Structure (SMILES): COC(=O)C1=C(C)NC(c2ncccc2F)=N[C@@H]1c1ccc(F)cc1Cl

IC50 (Hepatitis B virus [12]): 120 nM
Structure (SMILES): Cc1cc(C)n2nc(S)nc2c1

IC50 (Hepatitis B virus [13]): 5400 nM
Structure (SMILES): O=C1OC(OCc2ccccc2)=N/C1=C\c1ccccc1

IC50 (Hepatitis B virus [2]): 5100 nM
IC50 (Hepatitis B virus [6]): 600 nM
Structure (SMILES): CC(=O)O[C@H]([C@@H]1C[C@@H](C)C2=C3C[C@H](O)[C@H]4[C@@]5(C)CCC(=O)C(C)(C)[C@@H]5CC[C@]4(C)[C@@]3(C)C[C@@H]2O1)C(C)(C)O
selectivity ratio [1]: 18.5

IC50 (Hepatitis B virus [3]): 2600 nM
Structure (SMILES): CCOC(=O)c1cc2cc(OC)c(O)c(Cn3ccnc3)c2nc1C[S+]([O-])c1ccc(F)c(F)c1 (stereo unspecified)
selectivity ratio [4]: 61.7

Structure (SMILES): Cc1cc(O)c2c(c1)C(=O)c1cccc(O[C@@H]3O[C@H](CO)[C@@H](O)[C@H](O)[C@H]3O)c1C2=O [PULMATIN]
selectivity ratio [1]: > 42
selectivity ratio [4]: > 42
selectivity ratio [5]: > 42

EC50 (Hepatitis B virus [9]): 80 nM
Structure (SMILES): O=C1NCc2c1cc1ccc3c(c1c2-c1ccc2c(c1)OCO2)OCO3

IC50 (Hepatitis B virus [7]): 140 nM
Structure (SMILES): CCOC(=O)c1nc(-c2ncc(C)s2)sc1CC(C)C

IC50 (Hepatitis B virus [3]): 3500 nM
Structure (SMILES): CCOC(=O)c1cc2cc(OC)c(O)c(Cn3ccnc3)c2nc1C[S+]([O-])c1ccc(F)cc1 (stereo unspecified)
selectivity ratio [4]: 37.9

Structure (SMILES): COc1cc2c(cc1OC)-c1c(C)c3ccc4c(c3c[n+]1CC2)OCO4.[OH-]
inhibition (INH) (Hepatitis B virus [2]): 40%
inhibition (INH) (Hepatitis B virus [6]): 50%

IC50 (Hepatitis B virus [14]): 4 µg/mL (≈ 14.1 µM)
Structure (SMILES): COc1c(O)cc(O)c2c(=O)cc(-c3ccccc3)oc12 [WOGONIN]
inhibition at 20 µg/mL (Hepatitis B virus [15]): 45.4%

IC50 (Hepatitis B virus [8]): 2300 nM
Structure (SMILES): C[C@H]1[C@H](OC(=O)CCC(=O)O)O[C@@H]2O[C@@]3(C)CC[C@H]4[C@H](C)CC[C@@H]1[C@@]24OO3 [ARTESUNATE]

Structure (SMILES): O=Cc1ccc(O)c(O)c1 [PROTOCATECHUALDEHYDE]
EC50 (Hepatitis B virus [16]): 3.94 µg/mL (≈ 28.5 µM)
IC50 (Hepatitis B virus [17]): 4.17 µg/mL (≈ 30.2 µM)
EC50 (Hepatitis B virus [18]): 2.46 µg/mL (≈ 17.8 µM)

IC50 (Hepatitis B virus [6]): 600 nM
Structure (SMILES): C=C(C)[C@H](O)[C@@H](O)C[C@@H](C)C1=C2C[C@H](O)[C@H]3[C@@]4(C)CCC(=O)C(C)(C)[C@@H]4CC[C@]3(C)[C@@]2(C)CC1

Structure (SMILES): COc1cc2c(cc1O)-c1c(C)c3ccc4c(c3c[n+]1CC2)OCO4.[OH-]
inhibition (INH) (Hepatitis B virus [2]): 40%
inhibition (INH) (Hepatitis B virus [6]): 50%

IC50 (Hepatitis B virus [9]): < 60 µg/mL
Structure (SMILES): CCOC(=O)c1c(C[S+]([O-])c2ccc(F)c(F)c2)n(C)c2cc(Br)c(O)c(Cn3ccnc3C)c12 (stereo unspecified)
